This is an account of results in patent US20020183313A1, “1,4-benzodiazepinones and their uses as CCK antagonists” (Fujisawa Pharmaceutical Co., Ltd., priority 1996, published 2002).

The structures appear in SMILES notation.

Compound `Cc1cccc2c1N(C)C(=O)C(NC(=O)Nc1cccc(-c3nnn[nH]3)c1)N=C2C1CCCCC1` (racemic) [17(1), N-[(3RS)-5-Cyclohexyl-2,3-dihydro-1,9-dimethyl-2-oxo-1H-1,4-benzodiazepin-3-yl]-N′-[3-(tetrazol-5-yl)phenyl]urea] returned a melting point of 198.9 to 200.7 °C.
`Cc1ccccc1C(=O)CN1C(=O)C(NC(=O)Nc2cccc(-c3nnn[nH]3)c2)N=C(C2CCCCC2)c2cccc(C)c21` (racemic) [24(1), N-[(3RS)-5-Cyclohexyl-9-methyl-2,3-dihydro-1-(2-methylphenacyl)-2-oxo-1H-1,4-benzodiazepin-3-yl]-N′-[3-(tetrazol-5-yl)phenyl]urea]: the melting point lay in the range of 165 to 176.6 °C.
Under `Cc1ccccc1C(=O)CN1C(=O)C(NC(=O)c2cc3ccccc3[nH]2)N=C(C2CCCCC2)c2cccc(C)c21` (racemic) [24(2), (3RS)-5-Cyclohexyl-2,3-dihydro-3-(indol-2-yl)carbonylamino-9-methyl-1-(2-methylphenacyl)-1H-1,4-benzodiazepin-2-one] stands 126.7 to 145.2 °C.
As for `CC1=NC(NC(=O)Nc2cccc(C)c2)C(=O)N(CC(=O)N2CCC(N3CCCCC3)CC2)c2c(C)cccc21` (racemic) [48-3(1), N-[(3RS)-1-[4-(Piperidino)piperidin-1-yl]carbonylmethyl-5,9-dimethyl-2,3-dihydro-2-oxo-1H-1,4-benzodiazepin-3-yl]-N′-(3-methylphenyl)urea], the melting point lay within 214.5 to 217.3 °C.
Under `CC1=NC(NC(=O)Nc2cccc(C)c2)C(=O)N(CC(=O)N2CCC(O)(c3ccccc3)CC2)c2c(C)cccc21` (racemic) [48-3(6), N-[(3RS)-1-(4-Hydroxy-4-phenylpiperidin-1-yl)carbonylmethyl-5,9-dimethyl-2,3-dihydro-2-oxo-1H-1,4-benzodiazepin-3-yl]-N′-(3-methylphenyl)urea] stands 163.2 to 164.9 °C; under `CC1=NC(NC(=O)Nc2cccc(C)c2)C(=O)N(CC(=O)NC(C)(C)C)c2c(C)cccc21` (racemic) [48-3(11), N-[(3RS)-2,3-Dihydro-5,9-dimethyl-1-(N-tert-butylamino-carbonylmethyl)-2-oxo-1H-1,4-benzodiazepin-3-yl]-N′-(3-methylphenyl)urea], 243.4 to 244.4 °C; under `CC1=NC(NC(=O)Nc2cccc(C)c2)C(=O)N(CC(=O)N2CCN(CCO)CC2)c2c(C)cccc21` (racemic) [48-3(14), N-[(3RS)-2,3-Dihydro-1-[4-(2-hydroxyethyl)piperazin-1-yl]carbonylmethyl-5,9-dimethyl-2-oxo-1H-1,4-benzodiazepin-3-yl]-N′-(3-methylphenyl)urea], 221.7 to 224.2 °C.
The figure for `CC1=NC(NC(=O)Nc2cccc(C)c2)C(=O)N(CC(=O)N(CC(C)C)CC(C)C)c2c(C)cccc21` (racemic) [48-3(15), N-[(3 RS)-2,3-Dihydro-1-(N,N-diisobutylamino)carbonylmethyl-5,9-dimethyl-2-oxo-1H-1,4-benzodiazepin-3-yl]-N′-(3-methylphenyl)urea] is 226.9 to 228.1 °C.
Under `CC1=NC(NC(=O)Nc2cccc(C)c2)C(=O)N(CC(=O)N(CCO)CCO)c2c(C)cccc21` (racemic) [48-3(16), N-[(3RS)-2,3-Dihydro-1-(N,N-bis-(2-hydroxyethyl)amino)-carbonylmethyl-5,9-dimethyl-2-oxo-1H-1,4-benzodiazepin-3-yl]-N′-(3-methylphenyl)urea] stands 160.5 to 161.1 °C; under `Cc1cccc(NC(=O)NC2N=C(CN(C)C)c3cccc(C)c3N(CC(=O)N3CCCCCCC3)C2=O)c1` (racemic) [71-3(1), N-[(3RS)-1-(azacyclooctan-1-yl)carbonylmethyl-2,3-dihydro-5-(N,N-dimethylamino)methyl-9-methyl-2-oxo-1H-1,4-benzodiazepin-3-yl]-N′-(3-methylphenyl)urea], 147.9 to 149.1 °C.
Turning to `Cc1cccc(NC(=O)NC2N=C(C=O)c3cccc(C)c3N(CC(=O)N3CCCCCCC3)C2=O)c1` (racemic) [71-3(2), N-[(3RS)-1-(azacyclooctan-1-yl)carbonylmethyl-2,3-dihydro-5-formyl-9-methyl-2-oxo-1H-1,4-benzodiazepin-3-yl]-N′-(3-methylphenyl)urea], the melting point fell in the range of 137.9 to 141 °C.
For `CCOC(=O)C=CC1=NC(NC(=O)Nc2cccc(C)c2)C(=O)N(CC(=O)N2CCCCCCC2)c2c(C)cccc21` (racemic) [75(1)-1, N-[(3RS)-1-(azacyclooctan-1-yl)carbonylmethyl-2,3-dihydro-5-((EZ)-2-(ethoxycarbonyl)ethenyl)-9-methyl-2-oxo-1H-1,4-benzodiazepin-3-yl]-N′-(3-methylphenyl)urea], the melting point was 175.2 to 177.7 °C.
The figure for `Cc1cccc(NC(=O)NC2N=C(C=CC(=O)O)c3cccc(C)c3N(CC(=O)N3CCCCCCC3)C2=O)c1` (racemic) [75(1)-2, N-[(3RS)-1-(azacyclooctan-1-yl)carbonylmethyl-2,3-dihydro-5-((EZ)-2-carboxylethenyl)-9-methyl-2-oxo-1H-1,4-benzodiazepin-3-yl]-N′-(3-methylphenyl)urea] is 129.3 to 134.1 °C; for `CC(=O)c1sccc1CN1C(=O)C(NC(=O)Nc2cccc(C)c2)N=C(C(C)C)c2ccccc21` (racemic) [Example 2, N-[(3RS)-1-(2-acetylthiophen-3-yl)methyl-2,3-dihydro-5-isopropyl-2-oxo-1H-1,4-benzodiazepin-3-yl]-N′-(3-methylphenyl)urea] it is 219 to 221 °C (dec.).
`CC(=O)c1sccc1CN1C(=O)C(NC(=O)Nc2cccc(C)c2)N=C(CC(C)C)c2ccccc21` (racemic) [Example 6(3), N-[(3RS)-2,3-dihydro-5-(2-methylpropyl)-1-(2-methylcarbonylthiophen-3-yl)methyl-2-oxo-1,4-benzodiazepin-3-yl]-N′-(3-methylphenyl)urea]: the melting point was 215 to 218 °C.
As for `CC(=O)OCCN1C(=O)C(NC(=O)Nc2cccc(-c3nnn[nH]3)c2)N=C(C2CCCCC2)c2cccc(C)c21` (racemic) [Example 21-1, N-[(3RS)-1-(2-Acetoxyethyl)-5-cyclohexyl-2,3-dihydro-9-methyl-2-oxo-1H-1,4-benzodiazepin-3-yl]-N′-[3-(tetrazol-5-yl)phenyl]urea], the melting point lay within 165.2 to 168.4 °C.
Under `Cc1cccc2c1N(CCO)C(=O)C(NC(=O)Nc1cccc(-c3nnn[nH]3)c1)N=C2C1CCCCC1` (racemic) [Example 21-2, N-[(3RS)-5-Cyclohexyl-2,3-dihydro-1-(2-hydroxyethyl)-9-methyl-2-oxo-1H-1,4-benzodiazepin-3-yl]-N′-[3-(tetrazol-5-yl)phenyl]urea] stands 223.5 to 224.2 °C; under `CC1=NC(NC(=O)Nc2cccc(C)c2)C(=O)N(CC(=O)c2ccccc2C)c2c(C)cccc21` (racemic) [Example 37, N-[(3RS)-2,3-Dihydro-5,9-dimethyl-1-(2-methylphenacyl)-2-oxo-1H-1,4-benzodiazepin-3-yl]-N′-(3-methylphenyl)urea], 128.4 to 136.2 °C; under `CC1=NC(NC(=O)Nc2cccc(C)c2)C(=O)N(CC(=O)C(C)(C)C)c2c(C)cccc21` (racemic) [Example 41, N-[(3RS)-2,3-Dihydro-5,9-dimethyl-1-tert-butylcarbonylmethyl-2-oxo-1H-1,4-benzodiazepin-3-yl]-N′-(3-methylphenyl)urea], 179.6 to 181.2 °C.
In the case of `CCC(=O)CN1C(=O)C(NC(=O)Nc2cccc(C)c2)N=C(C)c2cccc(C)c21` (racemic) [Example 44, N-[(3RS)-2,3-Dihydro-1-ethylcarbonylmethyl-5,9-dimethyl-2-oxo-1H-1,4-benzodiazepin-3-yl]-N′-(3-methylphenyl)urea], the melting point is 125.1 to 127.5 °C.
`CC(=O)CN1C(=O)C(NC(=O)Nc2cccc(C)c2)N=C(C)c2cccc(C)c21` (racemic) [Example 46, N-[(3RS)-2,3-Dihydro-5,9-dimethyl-1-methylcarbonylmethyl-2-oxo-1H-1,4-benzodiazepin-3-yl]-N′-(3-methylphenyl)urea] displayed a melting point of 126.1 to 127.7 °C.
Consider `Cc1cccc2c1N(CC(=O)C1CC1)C(=O)C(NC(=O)Nc1cccc(-c3nnn[nH]3)c1)N=C2C1CCCCC1` (racemic) [Example 47, N-[(3RS)-5-Cyclohexyl-1-cyclopropylcarbonylmethyl-2,3-dihydro-9-methyl-2-oxo-1H-1,4-benzodiazepin-3-yl]-N′-[3-(tetrazol-5-yl)phenyl]urea], for which the melting point lay in the range of 227.1 to 233.2 °C.
Regarding `CCOC(=O)CN1C(=O)C(NC(=O)Nc2cccc(C)c2)N=C(C)c2cccc(C)c21` (racemic) [Example 48-1, N-[(3RS)-2,3-Dihydro-1-ethoxycarbonylmethyl-5,9-dimethyl-2-oxo-1H-1,4-benzodiazepin-3-yl]-N′-(3-methylphenyl)urea], the melting point fell in the range of 229.7 to 231 °C.
Regarding `Cc1cccc2c1N(Cc1c[nH]cn1)C(=O)C(NC(=O)Nc1cccc(-c3nnn[nH]3)c1)N=C2C1CCCCC1` (racemic) [Example 49, N-[(3RS)-5-Cyclohexyl-2,3-dihydro-1-(imidazol-4-yl)methyl-9-methyl-2-oxo-1H-1,4-benzodiazepin-3-yl]-N′-[3-(tetrazol-5-yl)phenyl]urea], the melting point is 168.2 to 179.2 °C.
Under `CC(=O)c1ccccc1CN1C(=O)C(NC(=O)Nc2cccc(-c3nnn[nH]3)c2)N=C(C2CCCCC2)c2cccc(C)c21` (racemic) [Example 51, N-[(3RS)-1-(2-acetylbenzyl)-5-cyclohexyl-2,3-dihydro-9-methyl-2-oxo-1H-1,4-benzodiazepin-3-yl]-N′-[3-(tetrazol-5-yl)phenyl]urea] stands 199 to 208 °C; under `Cc1cccc(NC(=O)NC2N=C(C3CCCCC3)c3cccc(C)c3N(CC(=O)C3CCCCC3)C2=O)c1` (racemic) [Example 54, N-[(3RS)-5-Cyclohexyl-1-cyclohexylcarbonylmethyl-2,3-dihydro-9-methyl-2-oxo-1H-1,4-benzodiazepin-3-yl]-N′-(3-methylphenyl)urea], 159.3 to 169.6 °C; under `CC1=NC(NC(=O)Nc2cccc(C)c2)C(=O)N(CC(=O)C2CCCCCC2)c2c(C)cccc21` (racemic) [Example 63, N-[(3RS)-1-Cycloheptylcarbonylmethyl-2,3-dihydro-5,9-dimethyl-2-oxo-1H-1,4-benzodiazepin-3-yl]-N′-(3-methylphenyl)urea], 171.3 to 174.6 °C.
